Experimental data taken from the NIST ThermoML archive (doi:10.1021/je300819g).

Conditions: Liquid, Ebulliometric method (Recirculating still)

CCNCCN [N-ethylethane-1,2-diamine]
Conditions | vapor or sublimation pressure [kPa]
358 K | 20.8
366.5 K | 29.6
374.1 K | 39.5
380.3 K | 49.7
390.2 K | 69.5
398.3 K | 90.2
401.9 K | 101.2
402.2 K | 101.5
